Earlier results in patent US20050221347A1, “Inhibitors of binding between proteins and macromolecular ligands” (Thrasos, Inc., priority 1999, published 2005).

Target: alpha subunit of the interleukin-2 receptor (Homo sapiens, UniProt P60568)
Sequence (P60568 21-153): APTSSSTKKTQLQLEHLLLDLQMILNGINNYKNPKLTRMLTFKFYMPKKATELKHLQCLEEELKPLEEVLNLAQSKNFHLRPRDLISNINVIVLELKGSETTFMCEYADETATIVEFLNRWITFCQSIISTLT

Kd (binding to the alpha subunit of the interleukin-2 receptor, described in Tilley et al., J. Am. Chem. Soc 119:7589 (1997)): ~3 µM
inhibition of binding of interleukin 2 to the interleukin-2 receptor (result in words, Tilley et al. 1997): inhibits the binding of interleukin 2
SMILES: COC(=O)[C@H](Cc1ccc(C#Cc2ccccc2)cc1)NC(=O)C[C@H]1CCCN(C(=N)N)C1 [Structural Formula (I)]
